Experiments:
[1] = molecular target: T1, human FGF-1 (flg) receptor tyrosine kinase (Homo sapiens, UniProt P11362); test: FGF receptor tyrosine kinase assay; type: biochemical; conditions: for IC50: read-out: Inhibition of Protein Tyrosine Kinases, FGF, IC50
T1 construct: a fragment of DNA that codes for the intracellular tyrosine kinase domain; made in house; host or cells: Sf9 insect cells (baculovirus), cell lysate
Summary of the method: (§1)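 Intracellular kinase domains expressed in baculovirus-infected SF9 cells; crude lysate used as enzyme. Inhibitor preincubated 10 min at 25 °C with lysate in pH 7.0 Hepes buffer with 10 mM MnCl2 and poly(Glu-Tyr) 4:1, then γ-32P-ATP (50 μM ATP) added for 10 min at 25 °C. TCA-precipitated 32P on filters counted, no-enzyme background subtracted.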

[2] = molecular target: T2, mouse PDGF-β receptor tyrosine kinase (Mus musculus, UniProt P05622); test: PDGF receptor tyrosine kinase assay; type: biochemical; conditions: for IC50: read-out: Inhibition of Protein Tyrosine Kinases, PDGF, IC50; for inhibition at 50 µM: read-out: Inhibition of Protein Tyrosine Kinases, PDGF, % Inhibition
T2 construct: a fragment of DNA that codes for the intracellular tyrosine kinase domain; made in house; host or cells: Sf9 insect cells (baculovirus), cell lysate
Summary of the method: as §1

C-src kinase = molecular target: T3, C-src kinase (Homo sapiens, UniProt P12931); test: C-src kinase assay; type: biochemical; conditions: for IC50: read-out: Inhibition of Protein Tyrosine Kinases, C-src, IC50
T3 construct: made in house; host or cells: baculovirus-infected insect cells
Summary of the method: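 Baculovirus-expressed c-src immunopurified on antibody-coated latex beads, assayed in 40 mM Tris pH 7.5, 5 mM MgCl2 with poly GluTyr substrate and 5 μM ATP plus 32P-ATP. Reaction 10 min at room temperature, TCA-quenched, filtered; incorporated label counted by scintillation.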

V-src kinase = V-src kinase assay; type: biochemical; conditions: at 50 μM
Description: V-src and C-src Kinase Assays
V-src or C-src kinase is purified from baculovirus infected insect cell lysates using an antipeptide monoclonal antibody directed against the N-terminal 2-17 amino acids. The antibody, covalently linked to 0.65-μm latex beads, is added to a suspension of insect cell lysis buffer comprised of 150 mM NaCl, 50 mM Tris pH 7.5, 1 mM DTT, 1% NP-40, 2 mM EGTA, 1 mM sodium vanadate, 1 mM PMSF, 1 μg/mL each of leupeptin, pepstatin, and aprotinin. Insect cell lysate containing either the c-src or v-src protein is incubated with these beads for 3-4 hours at 4° C. with rotation. At the end of the lysate incubation, the beads are rinsed 3 times in lysis buffer, resuspended in lysis buffer containing 10% glycerol, and frozen. These latex beads are thawed, rinsed three times in assay buffer which is comprised of 40 mM tris pH 7.5, 5 mM MgCl2, and suspended in the same buffer. In a Millipore 96-well plate with a 0.65 μm polyvinylidine membrane bottom are added the reaction components: 10-μL v-src or c-src beads, 10 μL of 2.5 mg/mL poly GluTyr substrate, 5 μM ATP containing 0.2 μCi labeled ^32 P-ATP, 5μL DMSO containing inhibitors or as a solvent control, and buffer to make the final volume 125 μL. The reaction is started at room temperature by addition of the ATP and quenched 10 minutes later by the addition of 125 μL of 30% TCA, 0.1M sodium pyrophosphate for 5 minutes on ice. The plate is then filtered and the wells washed with two 250-μL aliquots of 15% TCA, 0.1M pyrophosphate. The filters are punched, counted in a liquid scintillation counter, and the data examined for inhibitory activity in comparison to a known inhibitor such as erbstatin. The method is described more fully in J. Med. Chem., 37:598-609 (1994).

[3] = molecular target: T4, Human EGF receptor tyrosine kinase (Homo sapiens, UniProt P00533); test: EGF receptor tyrosine kinase assay; type: biochemical; conditions: for inhibition at 50 µM: read-out: Inhibition of Protein Tyrosine Kinases, EGF, % Inhibition
T4 construct: isolated from A431 epidermoid carcinoma cells; endogenous in cells; host or cells: A431 epidermoid carcinoma cells (Triton lysate, wheat germ agglutinin eluate)
Description: Purification of Epidermal Growth Factor Receptor Tyrosine Kinase
Human EGF receptor tyrosine kinase was isolated from A431 epidermoid carcinoma cells by the following methods. Cells were grown in roller bottles in 50% Delbuco's Modified Eagle and 50% HAM F-12 nutrient media (Gibco) containing 10% fetal calf serum. Approximately 10^9 cells were lysed in two volumes of buffer containing 20 mM 2-(4N-[2-hydroxyethyl]piperazin-1-yl)ethanesulfonic acid, pH 7.4, 5 mM ethylene glycol bis(2-aminoethyl ether)N,N,N',N'-tetraacetic acid, 1% Triton X-100, 10% glycerol, 0.1 mM sodium orthovanadate, 5 mM sodium fluoride, 4 mM pyrophosphate, 4 mM benzamide, 1 mM dithiothreitol, 80 μg/mL aprotinin, 40 μg/mL leupeptin, and 1 mM phenylmethylsulfonyl fluoride. After centrifugation at 25,000×g for 10 minutes, the supernatant was equilibrated for 2 hours at 4° C. with 10 mL of wheat germ agglutinin sepharose that was previously equilibrated with 50 mM Hepes, 10% glycerol, 0.1% Triton X-100 and 150 mM NaCl, pH 7.5, (equilibration buffer). Contaminating proteins were washed from the resin with 1M NaCl in equilibration buffer, and the enzyme was eluted with 0.5M N-acetyl-1-D-glucosamine in equilibration buffer.
Determination of IC50 Values
The reaction was terminated by the addition of 2 mL of 75 mM phosphoric acid and passed through a 2.5-cm phosphocellulose filter disc to bind the peptide. The filter was washed five times with 75 mM phosphoric acid and placed in a vial along with 5 mL of scintillation fluid (Ready gel Beckman).

PDGF receptor = PDGF receptor autophosphorylation in RASMC; type: cell-based, rat; conditions: PDGF-BB 30 ng/mL, read-out: Inhibition of PDGF Stimulated Receptor Auto Phosphorylation (IC50)
Description: Rat aorta smooth muscle cells (RASMC) were isolated from the thoracic aorta of rats and explanted according to the method of Ross, J. Cell. […] Cells were grown in Dulbecco's modified Eagle's medium (DMEM, Gibco) containing 10% fetal calf serum (FBS, Hyclone, Logan, Utah), 1% glutamine (Gibco) and 1% penicillin/streptomycin (Gibco). Cells were identified as smooth muscle cells by their "hill and valley" growth pattern and by fluorescent staining with a monoclonal antibody specific for SMC μ-actin (Sigma). RASMC were used between passages 5 and 20 for all experiments. Test compounds were prepared in dimethylsulfoxide (DMSO) in order to achieve consistency in the vehicle and to ensure compound solubility. Appropriate DMSO controls were simultaneously evaluated with the test compounds.
PDGF Receptor Autophosphorylation
RASMC were grown to confluency in 100 mm dishes. Growth medium was removed and replaced with serum-free medium and cells were incubated at 37° C. for an additional 24 hours. Test compounds were then added directly to the medium and cells incubated for an additional 2 hours. After 2 hours, PDGF-BB was added at a final concentration of 30 ng/mL for 5 minutes at 37° C. to stimulated autophosphorylation of the PDGF receptor. Following growth factor treatment, the medium was removed, and cells were washed with cold phosphate-buffered saline and immediately lysed with 1 mL of lysis buffer (50 mM HEPES[pH 7.5], 150 mM NaCl, 10% glycerol, 1% Triton X-100, 1 mM EDTA, 1 mMEGTA, 50 mM NaF, 1 mM sodium orthovanadate, 30 mM p-nitrophenyl phosphate, 10 mM sodium pyrophosphate, 1 mM phenylmethyl sulfonyl fluoride, 10 μg/mL aprotinin, and 10 μg/mL leupeptin). Lysates were centrifuged at 10,000×g for 10 minutes. […] Following the incubation, protein-A-sepharose beads were added for 2 hours with continuous mixing, and immune complexes bound to the beads washed 4 times with 1 mL lysis wash buffer. Immune complexes were solubilized in 30 μL of Laemmli sample buffer and electrophoresed in 4-20% SDS polyacrylamide gels. Following electrophoresis, separated proteins were transferred to nitrocellulose and immunoblotted with anti-phosphotyrosine antiserum. […] IC50 values were generated from the densitometric data.

T1 sequence (P11362 478-767 limits assumed): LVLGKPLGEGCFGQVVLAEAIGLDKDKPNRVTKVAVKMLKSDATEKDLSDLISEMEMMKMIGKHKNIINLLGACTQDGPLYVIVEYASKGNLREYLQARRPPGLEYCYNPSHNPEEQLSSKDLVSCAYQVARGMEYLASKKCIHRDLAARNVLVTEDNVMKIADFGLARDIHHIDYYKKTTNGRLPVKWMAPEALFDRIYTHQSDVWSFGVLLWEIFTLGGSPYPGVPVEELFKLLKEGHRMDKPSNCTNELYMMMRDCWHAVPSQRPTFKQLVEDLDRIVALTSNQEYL
T2 sequence (P05622 599-961 limits assumed): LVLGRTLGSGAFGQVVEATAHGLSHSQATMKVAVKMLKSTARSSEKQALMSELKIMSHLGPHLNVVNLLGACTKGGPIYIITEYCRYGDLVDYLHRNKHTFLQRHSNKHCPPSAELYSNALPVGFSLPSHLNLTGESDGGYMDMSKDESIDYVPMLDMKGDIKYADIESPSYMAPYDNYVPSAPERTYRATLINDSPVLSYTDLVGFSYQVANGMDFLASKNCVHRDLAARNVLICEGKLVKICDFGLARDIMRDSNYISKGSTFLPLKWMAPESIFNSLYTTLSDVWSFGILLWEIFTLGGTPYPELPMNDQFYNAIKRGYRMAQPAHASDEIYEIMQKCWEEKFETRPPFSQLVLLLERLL

Row | IC50 [1] [nM] | IC50 [2] [nM] | IC50 (C-src kinase) [nM] | inhibition at 50 µM ([3]; at 50 μM) [%] | IC50 (PDGF receptor) [nM] | Compound | Inhibition of Protein Tyrosine Kinases, V-src, % Inhibition (V-src kinase) [%] | Inhibition of Protein Tyrosine Kinases, EGF, % Inhibition ([3]; at 50 μM) [%] | inhibition at 50 µM ([1]; at 50 μM, read-out: Inhibition of Protein Tyrosine Kinases, FGF, % Inhibition) [%] | inhibition at 50 µM [2] [%] | inhibition at 50 µM (C-src kinase; at 50 μM, read-out: Inhibition of Protein Tyrosine Kinases, C-src, % Inhibition) [%] | IC50 ([3]; read-out: Inhibition of Protein Tyrosine Kinases, EGF, IC50) [nM]
1 | 1600 | 10200 | 19500 | 52.3 |  | CC(C)(C)NC(=O)Nc1ncc2cc(-c3c(Cl)cccc3Cl)c(NC(=O)NC(C)(C)C)nc2n1 [Example 2, 1-tert-Butyl-3-[7-(3-tert-butylureido)-6-(2,6-dichlorophenyl)-pyrido[2,3-d]pyrimidin-2-yl]urea] |  |  |  |  |  | 
2 | 7290 | 11400 | 214 | 58.3 |  | Nc1ncc2cc(-c3c(Cl)cccc3Cl)c(NC3=NCCO3)nc2n1 [Example 24, 2-[2-Amino-6-(2,6-dichlorophenyl)-pyrido[2,3-d]pyrimidin-7-yl]-amino-4,5-dihydro-oxazole] |  |  |  |  |  | 
3 | 75 | 676 | 117 |  | 1380 | CN(C)CCCNc1ncc2cc(-c3c(Cl)cccc3Cl)c(NC(=O)NC(C)(C)C)nc2n1 [Example 28, 1-tert-Butyl-3-[6-(2,6-dichlorophenyl)-2-(3-dimethylamino-propylamino)-pyrido[2,3-d]pyrimidin-7-yl]-urea] |  |  |  |  |  | 
4 | 84 | 573 | 100 |  | 365 | CN1CCN(CCCNc2ncc3cc(-c4c(Cl)cccc4Cl)c(NC(=O)Nc4ccccc4)nc3n2)CC1 [Example 51, 1-{6-(2,6-Dichlorophenyl)-2-[3-(4-methyl-piperazin-1-yl)-propylamino]-pyrido[2,3-d]pyrimidin-7-yl}-3-phenyl-urea] |  |  |  |  |  | 
5 | 72 | 838 | 85 |  | 1190 | CC(C)(C)NC(=O)Nc1nc2nc(NCCCN3CCOCC3)ncc2cc1-c1c(Cl)cccc1Cl [Example 59, 1-tert-Butyl-3-[6-(2,6-dichlorophenyl)-2-(3-morpholin-4-yl-propylamino)-pyrido[2,3-d]pyrimidin-7-yl]-urea] |  |  |  |  |  | 
6 | 1280 | 5190 | 3420 |  | 5290 | CCN(CC)CCNc1ncc2cc(-c3c(Cl)cccc3Cl)c(NC(=O)NC(C)(C)C)nc2n1 [Example 66, 1-tert-Butyl-3-[6-(2,6-dichlorophenyl)-2-(2-diethyl-amino-ethylamino)-pyrido[2,3-d]pyrimidin-7-yl]-urea] |  |  |  |  |  | 
7 | 1960 | 15600 | 4660 |  | 6460 | CN(C)CCCN(C)c1ncc2cc(-c3c(Cl)cccc3Cl)c(NC(=O)NC(C)(C)C)nc2n1 [Example 69, 1-tert-Butyl-3-{6-(2,6-dichlorophenyl)-2-[(3-dimethyl-amino-propyl)-methyl-amino]-pyrido[2,3-d]pyrimidin-7-yl}-urea] |  |  |  |  |  | 
8 | 8090 | 17800 |  | 60.9 |  | CN(C)C=Nc1ncc2cc(-c3c(Cl)cccc3Cl)c(NC(=O)NC(C)(C)C)nc2n1 [Example 79, N'-[7-(3-tert-Butylureido)-6-(2,6-dichlorophenyl)-pyrido[2,3-d]pyrimidin-2-yl]-N,N-dimethylformamidine] |  |  |  |  |  | 
9 | 148 | 711 | 213 | 34.4 |  | CC(C)(C)NC(=O)Nc1nc2nc(N)ncc2cc1-c1c(Br)cccc1Br [Example 88, 1-[2-Amino-6-(2,6-dibromo-phenyl)-pyrido[2,3-d]pyrimidin-7-yl]-3-tert-butyl-urea] |  |  |  |  |  | 
10 | 111 | 857 | 36 |  | 1630 | CC(C)NC(=O)Nc1nc2nc(N)ncc2cc1-c1c(Cl)cccc1Cl [Example 89, 1-[2-Amino-6-(2,6-dichlorophenyl)-pyrido[2,3-d]pyrimidin-7-yl]-3-isopropyl-urea] |  |  |  |  |  | 
11 | 128 | 1260 | 77 |  | 1080 | CCNC(=O)Nc1nc2nc(NCCCN(CC)CC)ncc2cc1-c1c(Cl)cccc1Cl [Example 112, 1-[6-(2,6-Dichlorophenyl)-2-(3-diethylamino-propyl-amino)-pyrido[2,3-d]pyrimidin-7-yl]-3-ethyl-urea] |  |  |  |  |  | 
12 | 77 | 1090 | 78 |  | 1100 | CCN(CC)CCCNc1ncc2cc(-c3c(Cl)cccc3Cl)c(NC(=O)NC(C)C)nc2n1 [Example 113, 1-[6-(2,6-Dichlorophenyl)-2-(3-diethylamino-propyl-amino)-pyrido[2,3-d]pyrimidin-7-yl]-3-isopropyl-urea] |  |  |  |  |  | 
13 | 1240 | 2630 | 24 |  | 5130 | CCNC(=O)Nc1nc2nc(NCCCN(CC)CC)ncc2cc1-c1c(C)cccc1C [Example 115] |  |  |  |  |  | 
14 | 335 | 804 | 98 |  | 910 | CCN(CC)CCCNc1ncc2cc(-c3c(C)cccc3C)c(NC(=O)NC(C)(C)C)nc2n1 [Example 116, 1-tert-Butyl-3-[2-(3-diethylamino-propylamino)-6-(2,6-dimethyl-phenyl)-pyrido[2,3-d]pyrimidin-7-yl]-urea] |  |  |  |  |  | 

Row | Compound | IC50 [1] [nM] | IC50 [2] [nM] | IC50 (C-src kinase) [nM] | inhibition at 50 µM ([3]; at 50 μM) [%] | IC50 (PDGF receptor) [nM] | Inhibition of Protein Tyrosine Kinases, V-src, % Inhibition (V-src kinase) [%] | Inhibition of Protein Tyrosine Kinases, EGF, % Inhibition ([3]; at 50 μM) [%] | inhibition at 50 µM ([1]; at 50 μM, read-out: Inhibition of Protein Tyrosine Kinases, FGF, % Inhibition) [%] | inhibition at 50 µM [2] [%] | inhibition at 50 µM (C-src kinase; at 50 μM, read-out: Inhibition of Protein Tyrosine Kinases, C-src, % Inhibition) [%] | IC50 ([3]; read-out: Inhibition of Protein Tyrosine Kinases, EGF, IC50) [nM]
15 | 1-[2-Amino-6-(2,6-dichlorophenyl)-pyrido[2,3-d]pyrimidin-7-yl]-3-(3-morpholin-4-yl-propyl)-thiourea [Example 23] | 291 | 4510 | 613 |  |  | 10.2 | 104.8 |  |  |  | 
16 | Cc1ccccc1-c1cc2cnc(NC(=O)NC(C)(C)C)nc2nc1NC(=O)NC(C)(C)C [Example 4, 1-tert-Butyl-3-[7-(3-tert-butylureido)-6-o-tolyl-pyrido[2,3-d]pyrimidin-2-yl]urea] |  |  |  | 36.6 |  | 3.1 |  | 21.5 | 31.9 | 33.6 | 
17 | Cc1ccccc1-c1cc2cnc(N)nc2nc1NC(=O)NC(C)(C)C [Example 5, 1-[2-Amino-6-o-tolyl-pyrido[2,3-d]pyrimidin-7-yl]-3-tert-butylurea] | 1400 | 466 | 407 |  |  | 23.3 |  |  |  |  | 928
18 | CC(=O)Nc1ncc2cc(-c3c(Cl)cccc3Cl)c(NC(C)=O)nc2n1 [Example 7, N-[2-Acetylamino-6-(2,6-dichlorophenyl)-pyrido[2,3-d]pyrimidin-7-yl]-acetamide] | 17900 |  | 2300 | 25.1 |  | 7.6 |  |  | 33.5 |  | 

Reference: US5733913A, “6-Aryl pyrido[2,3-d] pyrimidines and naphthyridines for inhibiting protein tyrosine kinase mediated cellular proliferation” (priority 1995, dated 1998)
